In ChEMBL document CHEMBL1135198, “Structure-activity relationships of non-imidazole H(3) receptor ligands. Part 1” (Bioorg Med Chem Lett, 2002):

How the values were obtained:
Histamine H2 receptor = Histamine H2 receptor (Homo sapiens, UniProt P25021); assay: Binding affinity for the human Histamine H2 receptor
Histamine H3 receptor = Histamine H3 receptor (Rattus norvegicus, UniProt Q9QYN8); assay: Binding affinity for the rat cortical Histamine H3 receptor
Histamine H1 receptor = Histamine H1 receptor (Homo sapiens, UniProt P35367); assay: Binding affinity for the human Histamine H1 Receptor
Chain of Histamine H1 receptor (P35367 whole entry): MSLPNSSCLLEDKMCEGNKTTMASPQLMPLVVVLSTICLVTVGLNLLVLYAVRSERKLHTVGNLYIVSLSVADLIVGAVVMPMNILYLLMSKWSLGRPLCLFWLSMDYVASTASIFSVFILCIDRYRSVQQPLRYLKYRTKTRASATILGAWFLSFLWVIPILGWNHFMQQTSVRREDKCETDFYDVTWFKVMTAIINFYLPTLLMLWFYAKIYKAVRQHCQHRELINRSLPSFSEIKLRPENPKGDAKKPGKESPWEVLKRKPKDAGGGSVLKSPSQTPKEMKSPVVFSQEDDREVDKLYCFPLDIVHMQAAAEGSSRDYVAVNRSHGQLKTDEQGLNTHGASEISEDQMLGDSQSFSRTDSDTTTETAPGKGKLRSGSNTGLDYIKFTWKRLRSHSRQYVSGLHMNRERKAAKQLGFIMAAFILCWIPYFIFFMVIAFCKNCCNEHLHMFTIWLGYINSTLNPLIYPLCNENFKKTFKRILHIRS

Chain of Histamine H3 receptor (Q9QYN8 whole entry): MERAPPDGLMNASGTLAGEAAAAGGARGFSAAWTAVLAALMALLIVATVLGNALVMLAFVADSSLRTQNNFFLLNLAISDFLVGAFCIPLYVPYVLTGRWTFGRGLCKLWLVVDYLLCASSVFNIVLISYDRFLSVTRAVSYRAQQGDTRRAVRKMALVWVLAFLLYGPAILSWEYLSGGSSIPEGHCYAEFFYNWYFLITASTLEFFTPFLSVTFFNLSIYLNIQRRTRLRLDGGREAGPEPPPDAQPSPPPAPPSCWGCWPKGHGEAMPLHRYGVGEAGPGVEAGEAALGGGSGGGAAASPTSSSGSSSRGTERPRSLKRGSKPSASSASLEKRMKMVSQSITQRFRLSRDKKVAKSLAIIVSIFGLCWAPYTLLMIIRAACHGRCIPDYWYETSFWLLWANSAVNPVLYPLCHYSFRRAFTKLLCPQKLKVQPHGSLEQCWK
Chain of Histamine H2 receptor (P25021 whole entry): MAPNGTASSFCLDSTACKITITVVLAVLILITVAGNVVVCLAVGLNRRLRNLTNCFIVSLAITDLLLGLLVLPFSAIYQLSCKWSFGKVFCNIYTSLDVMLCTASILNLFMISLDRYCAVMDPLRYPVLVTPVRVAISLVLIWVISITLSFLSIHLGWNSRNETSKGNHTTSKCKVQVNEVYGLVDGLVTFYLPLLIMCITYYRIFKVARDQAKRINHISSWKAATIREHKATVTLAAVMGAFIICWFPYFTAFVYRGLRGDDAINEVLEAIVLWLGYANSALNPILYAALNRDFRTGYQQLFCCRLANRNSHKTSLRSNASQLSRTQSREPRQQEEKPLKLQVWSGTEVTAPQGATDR

SMILES | Ki (Histamine H2 receptor) | Ki (Histamine H3 receptor) | Ki (Histamine H1 receptor)
CCOC(=O)N1CCN(CCCOc2ccc(C(=O)c3ccc(SC)cc3)cc2)CC1 | 6170 nM | 58.9 nM | 447 nM
C=C(C)C(=O)c1ccc(OCCCN2CCN(C(=O)OCC)CC2)cc1 | 22400 nM | 55 nM | 977 nM
CCCCCC(=O)c1ccc(OCCCN2CCN(C(=O)c3ccncc3)CC2)cc1 | 22400 nM | 6.31 nM | 479 nM
CCCCCC(=O)c1ccc(OCCCN2CCN(C(=O)c3sccc3Cl)CC2)cc1 | 19500 nM | 29.5 nM | 79.4 nM
CCOC(=O)N1CCN(CCCOc2ccc(C(=O)/C=C/c3ccc(OC)cc3)cc2)CC1 | 6760 nM | 7.24 nM | 617 nM
CCCCCC(=O)c1ccc(OCCCN2CCN(C(=O)C(C)(C)O)CC2)cc1 | 24500 nM | 57.5 nM | 21400 nM
CCCCCC(=O)c1ccc(OCCCN2CCN(C(=O)CC)CC2)cc1 | 31600 nM | 3.16 nM | 1910 nM
CCCCCC(=O)c1ccc(OCCCN2CCN(C(=O)c3ccccc3)CC2)cc1 | 12300 nM | 36.3 nM | 288 nM
CCCCCC(=O)c1ccc(OCCCN2CCNCC2)cc1 | 14500 nM | 26.9 nM | 6030 nM
CCCCCC(=O)c1ccc(OCCCN2CCN(C(=O)C3CC3)CC2)cc1 | 31600 nM | 2.14 nM | 1780 nM
CCOC(=O)N1CCN(CCCOc2ccc(C(=O)c3cccc(F)c3F)cc2)CC1 | 17400 nM | 25.1 nM | 1020 nM
CCCC(=O)c1ccc(OCCCN2CCN(C(=O)OCC)CC2)cc1 | 22400 nM | 3.63 nM | 741 nM
CCOC(=O)N1CCN(CCCOc2ccc(C(=O)C=C(C)C)cc2)CC1 | 21900 nM | 38.9 nM | 355 nM
CCCCCC(=O)c1ccc(OCCCN2CCN(C(=O)Cc3ccccc3)CC2)cc1 | 8910 nM | 10 nM | 56.2 nM
CCCCCC(=O)c1ccc(OCCCN2CCN(C(=O)c3cccnc3)CC2)cc1 | 60300 nM | 20.4 nM | 724 nM
CCOC(=O)N1CCN(CCCOc2ccc(C(=O)c3ccc(OC)cc3)cc2)CC1 | 8320 nM | 39.8 nM | 813 nM
CCCCCC(=O)c1ccc(OCCCN2CCN(S(C)(=O)=O)CC2)cc1 | 83200 nM | 21.4 nM | 26300 nM
CCCCCC(=O)c1ccc(OCCCN2CCN(CCC)CC2)cc1 | 27500 nM | 27.5 nM | 3390 nM
CCOC(=O)N1CCN(CCCOc2ccc(C(=O)c3ccc(F)cc3)cc2)CC1 | 42700 nM | 67.6 nM | 209 nM
CCOC(=O)N1CCN(CCCOc2ccc(C(=O)/C=C/c3cccnc3)cc2)CC1 | 25100 nM | 6.31 nM | 427 nM
CCCCCCCC(=O)c1ccc(OCCCN2CCN(C(=O)OCC)CC2)cc1 | 2140 nM | 3.72 nM | 562 nM
CCCCCC(=O)c1ccc(OCCCN2CCN(C(=O)c3c[nH]cn3)CC2)cc1 | 19500 nM | 4.47 nM | 525 nM
CCCCCC(=O)c1ccc(OCCCN2CCN(CC(C)C)CC2)cc1 | 9550 nM | 9.33 nM | 457 nM
CCCCCC(=O)c1ccc(OCCCN2CCN(Cc3nccs3)CC2)cc1 | 7080 nM | 16.6 nM | 60.3 nM
CCCCCC(=O)c1ccc(OCCCN2CCN(C(=O)c3ccc(C)s3)CC2)cc1 | 8130 nM | 15.8 nM | 97.7 nM
CCCCCC(=O)c1ccc(OCCCN2CCN(C(=O)c3cnco3)CC2)cc1 | 27500 nM | 44.7 nM | 4270 nM
CCCCCC(=O)c1ccc(OCCCN2CCN(C(=O)NCC)CC2)cc1 | 23400 nM | 21.4 nM | 1580 nM
CCOC(=O)N1CCN(CCCOc2ccc(C(=O)C3CCCCC3)cc2)CC1 | 7940 nM | 25.1 nM | 603 nM
CCOC(=O)N1CCN(CCCOc2ccc(C(=O)CC(C)C)cc2)CC1 | 69200 nM | 7.24 nM | 933 nM
CCCCCC(=O)c1ccc(OCCCN2CCN(C(=O)c3occc3C)CC2)cc1 | 12900 nM | 8.51 nM | 105 nM
